Assays:
[1] = biological target: T1, Serine/threonine-protein kinase Sgk1 (Homo sapiens, UniProt O00141); test: Inhibition of human SGK by mobility shift assay
T1 sequence (O00141 whole entry): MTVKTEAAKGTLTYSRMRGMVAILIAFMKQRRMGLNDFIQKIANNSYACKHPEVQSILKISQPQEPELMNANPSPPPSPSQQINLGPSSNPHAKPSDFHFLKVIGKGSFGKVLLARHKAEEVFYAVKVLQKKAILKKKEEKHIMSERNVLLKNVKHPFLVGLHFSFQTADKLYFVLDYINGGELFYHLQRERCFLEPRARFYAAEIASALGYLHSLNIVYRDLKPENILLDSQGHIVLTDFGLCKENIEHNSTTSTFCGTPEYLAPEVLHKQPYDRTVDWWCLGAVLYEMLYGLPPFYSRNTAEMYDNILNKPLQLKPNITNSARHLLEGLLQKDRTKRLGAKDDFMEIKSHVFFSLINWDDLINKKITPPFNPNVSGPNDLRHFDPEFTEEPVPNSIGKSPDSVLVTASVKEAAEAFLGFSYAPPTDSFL

[2] = biological target: RAC-gamma serine/threonine-protein kinase (Homo sapiens, UniProt Q9Y243); test: Inhibition of Akt3 (unknown origin) by mobile shift assay
[3] = Toxicity in ICR mouse assessed as reduction in hemoglobin level at 40 mg/kg, ig administered once daily for 7 days; assay type: organism-based; settings: in vivo, po, 168 h
[4] = AUC (0 to infinity) in ICR mouse at 20 mg/kg, po measured up to 48 hrs by LC-MS/MS analysis; assay type: ADME, organism-based; design: dose 20 mg/kg, time infinity, route oral; settings: in vivo
[5] = Cmax in ICR mouse at 20 mg/kg, po measured up to 48 hrs by LC-MS/MS analysis; assay type: ADME, organism-based; design: dose 20 mg/kg, route oral; settings: in vivo
[6] = biological target: Ribosomal protein S6 kinase beta-1 (Homo sapiens, UniProt P23443); test: Inhibition of human P70S6K by mobility shift assay
[7] = biological target: Ribosomal protein S6 kinase alpha-1 (Homo sapiens, UniProt Q15418); test: Inhibition of RSK1 (unknown origin) by mobility shift assay
[8] = Microsomal stability in dog liver microsomes assessed as compound remaining at 100 ug/ml in presence of NADPH measured at 1.5 hrs by LC/MS analysis; assay type: ADME, Canis lupus familiaris, Microsome; settings: read-out: Stability
[9] = Oral bioavailability in ICR mouse at 20 mg/kg measured up to 48 hrs by LC-MS/MS analysis; assay type: ADME, organism-based; settings: in vivo
MM1.S = test: Antitumor activity against human MM1S cells xenografted in BALB/c nude mouse assessed as tumor growth inhibition at 10 mg/kg, po administered once daily for 22 days relative to control; assay type: functional; settings: 528 h, read-out: TGI
OVCAR-8 = test: Antiproliferative activity against human OVCAR8 cells; assay type: functional, cell-based
[10] = Microsomal stability in mouse liver microsomes assessed as compound remaining at 100 ug/ml in presence of NADPH measured at 1.5 hrs by LC/MS analysis; assay type: ADME, Microsome; settings: read-out: Stability
Protein kinase C (PKC) = test: Inhibition of PKC (unknown origin); assay type: protein assay, Homo sapiens
[11] = Microsomal stability in monkey liver microsomes assessed as compound remaining at 100 ug/ml in presence of NADPH measured at 1.5 hrs by LC/MS analysis; assay type: ADME, Macaca mulatta, Microsome; settings: rhesus monkey, read-out: Stability
[12] = biological target: Serine/threonine-protein kinase AKT (Homo sapiens, UniProt P31751+Q9Y243+P31749); test: Inhibition of Akt in human LNCaP cells assessed as reduction in PRAS40 phosphorylation at T246 residue after 1 hr by ELISA; assay type: cell-based
[13] = biological target: RAC-beta serine/threonine-protein kinase (Homo sapiens, UniProt P31751); test: Inhibition of human Akt2 by mobile shift assay
[14] = Toxicity in ICR mouse assessed as induction of heavy gastrointestinal hemorrhage by autopsy analysis; settings: in vivo
[15] = biological target: Rho-associated protein kinase 1 (Homo sapiens, UniProt Q13464); test: Inhibition of human ROCK1 by mobile shift assay
[16] = Half-life in ICR mouse at 20 mg/kg, po measured up to 48 hrs by LC-MS/MS analysis; assay type: ADME, organism-based; settings: in vivo
[17] = Toxicity in ICR mouse assessed as reduction in red blood cells at 40 mg/kg, ig administered once daily for 7 days; assay type: organism-based; settings: in vivo, po, 168 h
[18] = Microsomal stability in rat liver microsomes assessed as compound remaining at 100 ug/ml in presence of NADPH measured at 1.5 hrs by LC/MS analysis; assay type: ADME, Microsome; settings: read-out: Stability
[19] = Toxicity in BALB/c nude mouse xenografted with human MM1S cells assessed as reduction in body weight at 10 mg/kg, po administered once daily for 22 days relative to control; assay type: organism-based; design: scale not given: the % may be the effect or the level left; settings: in vivo, 528 h
LNCaP = test: Antiproliferative activity against human LNCAP cells; assay type: functional, cell-based
[20] = Toxicity in BALB/c nude mouse xenografted with human MM1S cells assessed as reduction in mouse survival at 10 mg/kg, po administered once daily for 22 days; assay type: organism-based; settings: in vivo, 528 h
[21] = Toxicity in ICR mouse assessed as reduction in mouse survival at 20 to 40 mg/kg, ig administered once daily for 7 days; assay type: organism-based; settings: in vivo, po, 168 h
[22] = biological target: RAC-alpha serine/threonine-protein kinase (Homo sapiens, UniProt P31749)
Description: Inhibition of human Akt1 expressed in Escherichia coli using STK Substrate 2-biotin as substrate incubated for 1 hr by HTRF assay

[23] = Toxicity in ICR mouse assessed as reduction in creatinine level at 40 mg/kg, ig administered once daily for 7 days; assay type: organism-based; settings: in vivo, po, 168 h
[24] = Toxicity in po dosed BALB/c nude mouse xenografted with human MM1S cells assessed as maximum tolerated dose administered once daily for 22 days; assay type: organism-based; settings: in vivo
[25] = Toxicity in ICR mouse assessed as reduction in specific volume of RBC at 40 mg/kg, ig administered once daily for 7 days; assay type: organism-based; settings: in vivo, po, 168 h
HCT-116 = test: cells; settings: Homo sapiens, HCT-116, 72 h
hERG (KCNH2) = hERG (KCNH2) (Homo sapiens, UniProt Q12809); test: Inhibition of ERG in human HEK293 cells at 3 uM at -80 mV holding potential by whole-cell patch clamp assay relative to control; assay type: cell-based; settings: HEK293 cells expressing ERG
[26] = Inhibition of recombinant His-tagged human PKA expressed in Escherichia coli using Ser/Thr 01 as substrate after 1 hr by Z-lyte assay
[27] = Stability in mouse plasma at 100 ug/ml after 1 hr by LC/MS analysis; assay type: ADME, cell-free; settings: read-out: Stability
[28] = MRT (0 to infinity) in Sprague-Dawley rat at 25 mg/kg, ig measured up to 24 hrs by LC-MS/MS analysis; assay type: ADME, organism-based; settings: in vivo, po
[29] = AUC (0 to t) in Sprague-Dawley rat at 25 mg/kg, ig measured up to 24 hrs by LC-MS/MS analysis; assay type: ADME, organism-based; design: time < 24 hr, dose 25 mg/kg, route […]; settings: in vivo, po
[30] = Stability in human plasma at 100 ug/ml after 1 hr by LC/MS analysis; assay type: ADME, cell-free; settings: read-out: Stability
[31] = Tmax in Sprague-Dawley rat at 25 mg/kg, ig measured up to 24 hrs by LC-MS/MS analysis; assay type: ADME, organism-based; settings: in vivo, po
[32] = Half-life in Sprague-Dawley rat at 25 mg/kg, ig measured up to 24 hrs by LC-MS/MS analysis; assay type: ADME, organism-based; settings: in vivo, po
[33] = Clearance in Sprague-Dawley rat at 25 mg/kg, ig measured up to 24 hrs by LC-MS/MS analysis; assay type: ADME, organism-based; settings: in vivo, po
[34] = MRT (0 to t) in Sprague-Dawley rat at 25 mg/kg, ig measured up to 24 hrs by LC-MS/MS analysis; assay type: ADME, organism-based; settings: in vivo, po
[35] = Volume of distribution in Sprague-Dawley rat at 25 mg/kg, ig measured up to 24 hrs by LC-MS/MS analysis; assay type: ADME, organism-based; settings: in vivo, po
[36] = AUC (0 to infinity) in Sprague-Dawley rat at 25 mg/kg, ig measured up to 24 hrs by LC-MS/MS analysis; assay type: ADME, organism-based; design: dose 25 mg/kg, route […], time infinity; settings: in vivo, po
[37] = Cmax in Sprague-Dawley rat at 25 mg/kg, ig measured up to 24 hrs by LC-MS/MS analysis; assay type: ADME, organism-based; design: dose 25 mg/kg, route […]; settings: in vivo, po

Chain of Ribosomal protein S6 kinase alpha-1 (Q15418 whole entry): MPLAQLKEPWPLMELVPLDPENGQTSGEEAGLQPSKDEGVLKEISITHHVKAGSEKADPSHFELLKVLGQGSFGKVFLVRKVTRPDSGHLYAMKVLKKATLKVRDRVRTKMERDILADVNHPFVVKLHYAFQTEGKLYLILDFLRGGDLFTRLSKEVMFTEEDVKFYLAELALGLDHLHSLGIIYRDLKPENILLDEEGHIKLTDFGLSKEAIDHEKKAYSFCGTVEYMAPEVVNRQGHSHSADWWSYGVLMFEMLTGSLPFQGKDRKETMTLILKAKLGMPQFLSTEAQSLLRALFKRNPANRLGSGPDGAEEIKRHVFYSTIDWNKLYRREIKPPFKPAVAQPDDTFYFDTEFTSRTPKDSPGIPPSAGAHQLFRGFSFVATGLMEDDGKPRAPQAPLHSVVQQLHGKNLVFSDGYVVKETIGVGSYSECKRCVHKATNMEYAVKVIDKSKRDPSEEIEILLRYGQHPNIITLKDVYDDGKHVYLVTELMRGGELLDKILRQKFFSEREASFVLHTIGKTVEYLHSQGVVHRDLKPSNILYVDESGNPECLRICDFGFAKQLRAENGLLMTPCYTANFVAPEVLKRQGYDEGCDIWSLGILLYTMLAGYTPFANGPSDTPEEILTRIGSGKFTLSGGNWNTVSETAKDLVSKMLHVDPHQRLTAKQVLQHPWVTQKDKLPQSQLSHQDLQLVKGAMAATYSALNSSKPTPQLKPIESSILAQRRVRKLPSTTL
Chain of RAC-alpha serine/threonine-protein kinase (P31749 whole entry): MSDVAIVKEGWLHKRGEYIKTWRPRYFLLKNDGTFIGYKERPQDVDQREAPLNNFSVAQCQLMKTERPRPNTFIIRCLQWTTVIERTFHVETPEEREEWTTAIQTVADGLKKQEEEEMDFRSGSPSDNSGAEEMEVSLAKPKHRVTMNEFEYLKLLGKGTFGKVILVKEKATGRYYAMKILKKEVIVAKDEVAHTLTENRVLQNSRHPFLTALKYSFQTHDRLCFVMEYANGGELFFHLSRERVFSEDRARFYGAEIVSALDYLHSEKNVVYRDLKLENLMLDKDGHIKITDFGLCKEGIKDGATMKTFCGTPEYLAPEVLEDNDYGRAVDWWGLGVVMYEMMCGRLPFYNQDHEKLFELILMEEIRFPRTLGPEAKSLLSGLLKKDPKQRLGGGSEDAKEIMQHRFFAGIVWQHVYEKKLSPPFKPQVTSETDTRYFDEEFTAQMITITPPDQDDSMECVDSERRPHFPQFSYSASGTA
Chain of Ribosomal protein S6 kinase beta-1 (P23443 whole entry): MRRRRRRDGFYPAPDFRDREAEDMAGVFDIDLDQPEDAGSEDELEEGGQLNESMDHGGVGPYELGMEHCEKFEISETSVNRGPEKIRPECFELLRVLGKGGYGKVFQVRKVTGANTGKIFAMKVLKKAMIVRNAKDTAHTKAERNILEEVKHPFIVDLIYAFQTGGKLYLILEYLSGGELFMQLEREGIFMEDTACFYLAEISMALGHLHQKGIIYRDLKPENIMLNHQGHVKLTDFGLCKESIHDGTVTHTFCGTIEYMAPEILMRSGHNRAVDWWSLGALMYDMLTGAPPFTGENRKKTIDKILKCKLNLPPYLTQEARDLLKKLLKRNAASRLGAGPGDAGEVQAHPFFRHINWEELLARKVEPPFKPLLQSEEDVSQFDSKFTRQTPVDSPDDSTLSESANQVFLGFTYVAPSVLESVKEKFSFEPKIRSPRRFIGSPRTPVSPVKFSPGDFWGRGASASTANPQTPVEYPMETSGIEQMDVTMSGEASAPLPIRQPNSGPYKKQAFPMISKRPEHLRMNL
Chain of RAC-gamma serine/threonine-protein kinase (Q9Y243 whole entry): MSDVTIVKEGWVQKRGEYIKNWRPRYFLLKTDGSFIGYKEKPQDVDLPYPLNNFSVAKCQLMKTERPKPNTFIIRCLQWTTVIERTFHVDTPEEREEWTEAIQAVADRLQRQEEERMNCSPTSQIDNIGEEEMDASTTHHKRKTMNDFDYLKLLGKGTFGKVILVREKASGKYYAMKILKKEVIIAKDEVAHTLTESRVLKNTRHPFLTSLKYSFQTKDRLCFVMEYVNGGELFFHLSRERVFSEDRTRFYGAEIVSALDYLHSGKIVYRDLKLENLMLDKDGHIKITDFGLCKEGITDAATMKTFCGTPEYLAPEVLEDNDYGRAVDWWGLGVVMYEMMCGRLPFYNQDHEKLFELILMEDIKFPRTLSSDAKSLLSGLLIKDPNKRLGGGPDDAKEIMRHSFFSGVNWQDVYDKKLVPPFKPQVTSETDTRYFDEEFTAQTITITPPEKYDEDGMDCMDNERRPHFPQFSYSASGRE
Chain of RAC-beta serine/threonine-protein kinase (P31751 whole entry): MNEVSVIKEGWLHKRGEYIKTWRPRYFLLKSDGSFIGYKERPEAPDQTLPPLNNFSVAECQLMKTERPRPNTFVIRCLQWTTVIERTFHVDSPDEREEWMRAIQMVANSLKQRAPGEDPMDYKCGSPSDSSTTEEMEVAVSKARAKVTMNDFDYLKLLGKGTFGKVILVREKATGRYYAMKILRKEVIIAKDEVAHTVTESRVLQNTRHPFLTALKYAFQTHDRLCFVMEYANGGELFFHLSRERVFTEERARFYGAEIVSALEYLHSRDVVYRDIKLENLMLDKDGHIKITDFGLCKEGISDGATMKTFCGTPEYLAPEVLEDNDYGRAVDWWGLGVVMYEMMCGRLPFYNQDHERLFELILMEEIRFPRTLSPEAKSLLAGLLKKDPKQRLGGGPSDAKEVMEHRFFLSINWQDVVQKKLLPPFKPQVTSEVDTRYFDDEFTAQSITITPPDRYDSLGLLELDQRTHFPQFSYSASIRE
Chain of hERG (KCNH2) (Q12809 whole entry): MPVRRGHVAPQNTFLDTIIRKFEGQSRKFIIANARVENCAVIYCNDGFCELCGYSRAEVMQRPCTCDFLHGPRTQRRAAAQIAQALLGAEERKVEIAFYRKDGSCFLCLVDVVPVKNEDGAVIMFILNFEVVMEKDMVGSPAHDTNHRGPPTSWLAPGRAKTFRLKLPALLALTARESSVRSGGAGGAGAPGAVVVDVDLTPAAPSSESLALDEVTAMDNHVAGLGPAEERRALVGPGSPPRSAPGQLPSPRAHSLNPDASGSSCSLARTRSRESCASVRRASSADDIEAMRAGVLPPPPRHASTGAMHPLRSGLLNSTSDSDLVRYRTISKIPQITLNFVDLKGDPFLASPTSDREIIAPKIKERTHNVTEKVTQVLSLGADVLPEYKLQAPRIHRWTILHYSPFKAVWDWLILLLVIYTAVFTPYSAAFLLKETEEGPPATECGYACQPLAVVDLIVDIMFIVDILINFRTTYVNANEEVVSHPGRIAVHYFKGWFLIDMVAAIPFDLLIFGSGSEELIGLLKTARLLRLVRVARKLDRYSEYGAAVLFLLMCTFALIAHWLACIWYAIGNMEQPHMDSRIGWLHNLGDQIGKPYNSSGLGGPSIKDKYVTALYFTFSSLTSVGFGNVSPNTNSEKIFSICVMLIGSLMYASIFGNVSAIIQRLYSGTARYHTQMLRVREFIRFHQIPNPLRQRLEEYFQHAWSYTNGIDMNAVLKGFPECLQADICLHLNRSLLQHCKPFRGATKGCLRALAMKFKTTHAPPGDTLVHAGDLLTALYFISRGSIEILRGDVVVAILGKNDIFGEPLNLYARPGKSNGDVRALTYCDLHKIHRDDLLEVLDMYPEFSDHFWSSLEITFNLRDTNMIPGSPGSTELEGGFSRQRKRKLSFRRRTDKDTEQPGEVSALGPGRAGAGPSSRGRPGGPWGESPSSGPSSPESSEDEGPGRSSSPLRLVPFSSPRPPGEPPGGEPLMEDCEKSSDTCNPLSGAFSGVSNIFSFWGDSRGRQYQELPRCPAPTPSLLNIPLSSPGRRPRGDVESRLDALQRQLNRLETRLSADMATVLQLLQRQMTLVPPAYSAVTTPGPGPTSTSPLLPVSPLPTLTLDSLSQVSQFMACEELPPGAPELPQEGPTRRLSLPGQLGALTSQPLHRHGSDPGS

Row | SMILES | IC50 [1] [nM] | IC50 [2] [nM] | IC50 [6] [nM] | IC50 [7] [nM] | remaining at 1.5 h, 100 ug/ml [8] [%] | IC50 (OVCAR-8) [nM] | remaining at 1.5 h, 100 ug/ml [10] [%] | IC50 (Protein kinase C (PKC)) [nM] | remaining at 1.5 h, 100 ug/ml [11] [%] | IC50 [13] [nM] | IC50 [15] [nM] | remaining at 1.5 h, 100 ug/ml [18] [%] | IC50 (LNCaP) [nM] | IC50 [22] [nM] | IC50 (HCT-116) [nM] | inhibition at 3 µM (hERG (KCNH2)) [%] | further results
1 | Cn1ncc(Cl)c1-c1cc(C(=O)N[C@@H]2CNCC[C@H]2c2ccc(F)c(F)c2)oc1Cl.O=C(O)C(O)C(O)C(=O)O | 59 | 0.1 | 7 | 48 | 86.9 | 40 | 89.9 | 156 | 39.9 | < 0.64 | 20 | 69.7 | 60 | 3 | 210 | 62.1 | Activity [3]: Toxic; AUC [4]: 6670 ng·h/mL; Cmax [5]: 398 ng/mL; bioavailability [9]: 97.9%; inhibition in vivo at 10 mg/kg (MM1.S): 87.5%; IC50 [12]: 21.1 nM; Activity [14]: Toxic; half-life [16]: 10.7 h; Activity [17]: Toxic; Activity [19]: <= 25%; Activity [20]: Toxic; Activity [21]: Toxic; Activity [23]: Toxic; MTD at 528 h [24]: < 10 mg/kg; Activity [25]: Toxic
2 | Cn1ncc(Cl)c1-c1cc(C(=O)N[C@@H]2CN[C@H](CCO)C[C@H]2c2ccc(F)c(F)c2)oc1Cl | 102 | 0.12 | 7.1 | 32 | 96 | 460 | > 99 | 16 | 18 | 0.54 | 38 | 69 | 60 | 0.98 | 360 | 9 | IC50 [26]: 0.2 nM; remaining at 1 h, 100 ug/ml [27]: > 99%; MRT inf [28]: 12.3 h; AUC(0-t) at 24 h [29]: 1010 ng·h/mL; remaining at 1 h, 100 ug/ml [30]: > 99%; Tmax [31]: 1.1 h; half-life [32]: 12.7 h; CL/F [33]: 433 mL/min/kg; MRT last at 24 h [34]: 5.1 h; Vd [35]: 300.9 L/kg; AUC(0-inf) [36]: 1660 ng·h/mL; Cmax [37]: 145 ng/mL
